In ChEMBL document CHEMBL1143449, “Exploring the connection unit in the HDAC inhibitor pharmacophore model: novel uracil-based hydroxamates” (Bioorg Med Chem Lett, 2005) one finds IC50 and Selectivity index data, which are given here for 16 molecules.

One assay concerns the target T1, Histone deacetylase HD2 (Zea mays, UniProt Q94F81).
T1 sequence (Q94F81 whole entry): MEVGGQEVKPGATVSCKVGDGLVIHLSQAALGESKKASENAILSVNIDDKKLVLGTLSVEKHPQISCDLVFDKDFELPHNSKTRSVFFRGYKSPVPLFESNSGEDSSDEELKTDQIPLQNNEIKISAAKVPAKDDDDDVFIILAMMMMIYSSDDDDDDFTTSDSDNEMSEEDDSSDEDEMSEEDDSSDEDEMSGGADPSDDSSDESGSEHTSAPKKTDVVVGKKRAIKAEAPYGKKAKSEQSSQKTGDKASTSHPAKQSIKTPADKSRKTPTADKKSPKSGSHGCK
As to the kind of experiment: Inhibitory concentration against Histone deacetylase 2 in maize. The format is functional.

Assay [1] can be described thus: Inhibitory concentration against Histone deacetylase 1A in maize. The format is functional, Zea mays.
A short description of assay [2]: Inhibitory concentration against Histone deacetylase 1B in maize. The format is functional, Zea mays.
Assay [3] relates to Zea mays. As to the kind of experiment: Selectivity for class I (HD1B) against class II (HD1A) histone deacetylases. The format is functional.
Assay [4] has as its system Zea mays. As to the kind of experiment: Selectivity of for class II (HD1A) against class I (HD1B) histone deacetylases. It is filed as functional.

Consider `O=C(/C=C/Sc1nc(O)cc(Cc2ccccc2)n1)NO`, for which the figures for the IC50 (at Histone deacetylase HD2; in assay [1]; in assay [2]) were 9000 nM, 13300 nM and 7400 nM, respectively.
Turning to `O=C(CCCSc1nc(Cc2ccccc2)cc(=O)[nH]1)NO`, on Histone deacetylase HD2, the IC50 (commonly the point on the concentration scale where inhibition reaches its midpoint) was 229 nM.
Turning to `CCCc1cc(O)nc(SCCCCCC(=O)NO)n1`, the half-inhibitory concentration (IC50) against Histone deacetylase HD2 came to 135 nM; in assay [1] it was 66 nM; in assay [2] it was 116 nM.
With `O=C(CCCCCSc1nc(Cc2ccccc2)cc(=O)[nH]1)NO`, the concentration for half-maximal inhibition (IC50) against Histone deacetylase HD2 amounted to 18 nM; in assay [1] it was 29 nM.
For the molecule `O=C(CCCCCSc1nccc(O)n1)NO`, the IC50 is 213 nM at Histone deacetylase HD2, 132 nM in assay [1] and 239 nM in assay [2].
Taken in the same sequence, the figures for `O=C(CCCCCCSc1nc(O)cc(Cc2ccccc2)n1)NO` were 37 nM, 53 nM and 76 nM.
Taken in the same sequence, the figures for `O=C(CC1CSc2nc(Cc3ccccc3)cc(=O)n21)NO` (stereo not drawn) were 31800 nM, 38200 nM and 30200 nM.
For `O=C(CCSc1nc(O)cc(Cc2ccccc2)n1)NO`, the IC50 against Histone deacetylase HD2 amounted to 38 nM; in assay [1], 126 nM; in assay [2] it was 41 nM. Besides, the Selectivity index with Zea mays [3] turned out to be 3.1.
On to `O=C(CCCCSc1nc(O)cc(Cc2ccccc2)n1)NO`, for which the IC50 at Histone deacetylase HD2 was found to be 125 nM; in assay [1] it was 181 nM; in assay [2] it was 130 nM.
For `CCc1ccccc1-c1cc(O)nc(SCCCCCC(=O)NO)n1`, the IC50 on Histone deacetylase HD2 came to 35 nM; in assay [1] it was 25 nM; in assay [2] it was 48 nM. The Selectivity index in the assay with Zea mays [4] is 2.
Regarding `Cc1cc(O)nc(SCCCCCC(=O)NO)n1`, the IC50 on Histone deacetylase HD2 came out at 110 nM; in assay [1], 78 nM; in assay [2] it was 112 nM.
For `O=C(O)[C@@H]1C[C@]2(C(=O)O)C=C[C@@H](O)[C@@H](C2)O1`, the IC50 at Histone deacetylase HD2 was determined as 7 nM; in assay [1], 0.8 nM; in assay [2], 0.4 nM. For the same molecule, the Selectivity index with Zea mays [3] amounted to 2.
Regarding `O=C(CCCSc1nc(O)cc(Cc2ccccc2)n1)NO`, in the assay with Zea mays [3], the Selectivity index stood at 3.5. Moreover, the half-maximal inhibitory concentration (IC50) in assay [1] was found to be 885 nM; in assay [2] it was 251 nM.
With `O=C(CCCCCSc1nc(-c2ccccc2)cc(=O)[nH]1)NO`, the IC50 at Histone deacetylase HD2 was 12 nM; in assay [1], 6 nM; in assay [2], 19 nM. In addition, the Selectivity index in the assay with Zea mays [4] was 3.2.
In assay [2], `O=C(CCCCCCC(=O)Nc1ccccc1)NO` [VORINOSTAT] showed a half-maximal inhibitory concentration (IC50) of 28 nM.
As for `O=C(CCCCCCCSc1nc(O)cc(Cc2ccccc2)n1)NO`, the IC50 at Histone deacetylase HD2 is 61 nM; in assay [1], 64 nM; in assay [2], 193 nM. For the same molecule, the Selectivity index in the assay on Zea mays [4] stood at 3.
